Where a name gives a salt, the structure may show the parent alone.
Experiments:
HEK293A wild-type cells = assay: CellTiter-Glo cell viability assay, titration of antibiotic concentrations (killing curve); type: cell-based, human; settings: HEK293A wild-type cells
Protocol: (§1) HEK293A wild-type cells were treated for 72 h with various concentrations of the antibiotics (a) hygromycin B and (b) puromycin, respectively. Cell viability was determined with the CellTiter-Glo assay.
(§2) The CellTiter-Glo assay was used to determine the number of viable cells in a sample. The method is based on the quantification of the ATP amount as an indicator of metabolically active cells. The CellTiter-Glo Luminescent Cell Viability Assay Kit from Promega was used for the experiments. The CellTiter-Glo reagent was freshly prepared before each experiment. For this purpose, the substrate, which contains inter alia luciferin and a luciferase, was dissolved in the accompanying buffer. After direct addition to the medium of the cells, lysis of the cells occurs first. Viable cells produce ATP in their mitochondria, which is thereby released. In the presence of ATP, the luciferin is converted by the UltraGlo r-luciferase. This produces a stable luminescence signal which is proportional to the amount of ATP present and thus to the number of viable cells.
(§3) The assay was used to optimize transfection and to titrate the optimal antibiotic concentrations of hygromycin B and puromycin for post-transfection selection. In all assays, cells were seeded in a black flat bottom 96-well plate with a transparent bottom. When titrating the antibiotic concentrations, 7,500 cells were seeded per well. The next day, the cells were treated with various concentrations of the antibiotic. After […], the viability of the cells was determined by the assay in which 100 μL of the CellTiter-Glo reagent was added to each well. Subsequently, the plate was shaken on a plate shaker for 2 min. at 200 rpm. After incubation in the dark for 10 minutes, the luminescence signal was measured on the luminometer.

[1] = as above; type: cell-based, human; settings: human
Protocol: as §1, §2, §3

Compound	cell viability (HEK293A wild-type cells; 20 μg/mL, 72 h)	cell viability expected at selection concentration (HEK293A wild-type cells; 50 μg/mL)	viability at 72 h, 2 μg/mL ([1]; cell viability)	viability at 72 h, 2 μg/mL ([1]; cell viability expected at selection concentration)
CN[C@H]1C[C@@H](N)[C@H](O)[C@@H](O[C@@H]2O[C@H](CO)[C@H](O)[C@@H]3OC4(O[C@H]23)O[C@H]([C@@H](N)CO)[C@H](O)[C@H](O)[C@H]4O)[C@@H]1O (stereo partly shown) [hygromycin B, Hygromycin B]	less than 20%	about 12%	–	–
COc1ccc(C[C@H](N)C(=O)N[C@H]2[C@@H](O)[C@H](n3cnc4c(N(C)C)ncnc43)O[C@@H]2CO)cc1 [puromycin, Puromycin dihydrochloride]	–	–	< 15%	~12%
